From patent US6353015B1, “Method of treating neurodegenerative disorders” (St. Elizabeth's Medical Center, priority 1998, dated 2002)
“Also recorded” adds a separate entry of the source. Read-outs that look alike come from different tables or passages of the source. No end group written: not given here.

Legend:
cerebellar granule cells = experiment: βAP 25-35 toxicity assay in mature cerebellar granule cell cultures (Example 5); type: cell-based, rat; conditions: for increase of the amount of living CGC, compound alone: concentration range 25-200 μM; for protective effect against the toxicity of βAP 25-35 (in words): mature cultures, 8 DIV; for protection of neurons against βAP: compound at 25 μM
Description: FIG. 8. […] The difference in numbers of living neurons before and after 4 days of treatment were determined. The amount of viable neurons is expressed as mean (%) above viable in preliminary photography of the same place. Experiments were repeated 2-3 times (n=12-18). For graphical presentation, average data from representative experiments were converted to percentages of control groups viability. Results were expressed as a percentage of survival cells to compare with control ±SEM and were analyzed by a statistical test (ANOVA).
Cerebellar granule cells (CGC) were prepared from the postnatal rats (7-8 days old) by the following procedure based on the generally accepted methods (V. Gallo et al., J. Neurosci. 7:2203-2213, 1987). The pieces of cerebellum were digested with 0,25 mg/ml trypsin for 25 min. at 37° C. and incubated for 5 min. in 0.1% soybean trypsin inhibitor. After washing, cells were dissociated by triturating. Following two centrifugation-resuspension steps, the cells were plated at a density of 2.5-[…] cells per ml on polylysine-coated 24-well plates (Corning) and maintained at 37° C. in a humidified incubator with 5% CO2/95% room air. The medium was composed of Eagle's minimal essential medium and fetal calf serum (10%) supplemented with 20 mM potassium chloride, 10 mM glucose, 2 mM glutainine, 50 μg/ml gentamycin sulfate. Cytosine arabinoside (10 μM) was added 24-48 h later to prevent the replication of non-neuronal cells.
The βAP 25-35 (Bachem) was dissolved by sonication in sterilized distilled water at a concentration of 1 mM. […]
Neuronal viability was evaluated by morphometric cell counting using the presence of neurites and smooth, round cell bodies as criteria of survival. The cells were examined under the phase-contrast microscope Axiovert 25C with videocamera and Software miroMedia PCTV VideoCap program for image scanning and photography. Cell survival was quantified by counting the number of viable neurons in premarked microscope fields prior to, and 4 days after the exposure. The difference in numbers of living neurons before and after 4 days of treatment was determined.
For each experiment, we used 4-6 separate wells of a 24-well multiwell plate for control (with 0.05% DMSO)and for each concentration of compound or composition of compound with βAP. Each well equals one observation, (average of 25 cells per microscope field). Experiments are repeated 2-3 times (n=12-18). For graphical presentation, average data from representative experiments were expressed as a percentage of survival cells in comparison with control ±SEM and analyzed by ANOVA and Student t-test.

[1] = in rats; Oxenkrug et al. 1994; cited from earlier work
AF64A-treated rats [2] = conditions: rat, in vivo; for Correct responses, % Learning test / Correct responses, % Retention test: po
mouse = experiment: Mouse tail suspension test; conditions: in vivo
Text: The combination of cognition-enhancing and antidepressant effect in the one and the same compound might be of additional therapeutic advantage.

Antihypertensive effect = conditions: in vivo
AF64A-treated rats [3] = experiment: Two-way shuttle box avoidance, learning and retention tests (Example 3); type: in vivo, rat
AF64A-treated rats [4] = experiment: Morris water maze test; type: in vivo, rat; conditions: 0.3 mg/kg daily orally; day 1 and day 5
Description: FIGS. 7A and 7B Average swim latency made by rats, when trained 1 (A) and […] to find a platform in Morris water maze test. […] Results were estimated as time required for rat felt into a water pool to reach a platform;**−[…], ***−p<0.001 vs. AF64A-treated group, where p is the significance level (post hoc ANOVA).
The test was started 2 days after the last injection of tested compounds and was performed daily for the period from 3 to 9 day. Round swimming pool (1,8 m diameter and 0,45 m high) with 22° C. water was placed in the center of the room. The platform was located 1 cm below the surface of the water. Starting points for the swims were at the cardinal compass points (N, S, E, W), which were selected in a semi-random fashion for each rat on each trial.
Each experimental group, i.e., control, AF64A-treated groups and groups for each concentration of the tested compounds, contained 9-11 rats. Results were estimated as time required for rat felt into a water pool to reach a platform (a sum of two trials from different position every day). Data were analyzed as the mean±SEM. (ANOVA followed by post hoc comparisons).

rats = experiment: Observation of sedative effect during oral treatment
[5] = system: Cerebellar granule cells (CGC); experiment: Survival of cerebellar granule cells with amyloid beta-protein (Example 4); type: cell-based, rat; set-up: dose or concentration left out as unconfirmed; conditions: 72 hr
Description: Cerebellar granule cells (CGC) obtained from brains of 8-day rat pups were maintained in culture. The amyloid beta-protein (βAP) and/or NAS derivative (DNAS-18) were added to CGC for a period of 72 hr. Vehicle solution was added to CGC in the control experiments. Survival of CGS was assessed by lactate dehydrogenase method and by visual counting of living neurons.

[6] = 3 mg/kg p.o. for 12 days after AF64A i.c.v. 3 nmol/ventricle

Compound | comparative efficacy in preventing βAP toxicity (cerebellar granule cells) | increase of the amount of living CGC, compound alone (cerebellar granule cells) | protective effect against the toxicity of βAP 25-35 (in words) (cerebellar granule cells; 4 days) | cognitive performance of AF64A-treated rats in active avoidance and in water-maze tests (summary) (AF64A-treated rats [2]) | performance in learning paradigm of the active avoidance test (in words) (AF64A-treated rats [2]) | performance in retention paradigm of the active avoidance test (in words) (AF64A-treated rats [2]) | Correct responses, % Learning test (AF64A-treated rats [2]; 1 mg/kg) | Correct responses, % Retention test (AF64A-treated rats [2]; 1 mg/kg) | antidepressant-like activity (decreasing the duration of immobility) (mouse) | antihypertensive effect (Antihypertensive effect) | Correct responses, % Learning test (AF64A-treated rats [2]; 3 mg/kg) | Correct responses, % Retention test (AF64A-treated rats [2]; 3 mg/kg) | melting point | protection of neurons against βAP (cerebellar granule cells; 25 μM βAP) | response time (swim latency to platform) (AF64A-treated rats [4]) | Correct responses, % Learning test (AF64A-treated rats [2]; 0.3 mg/kg) | Correct responses, % Retention test (AF64A-treated rats [2]; 0.3 mg/kg) | sedative effect (rats; 0.3 mg/kg orally daily) | also measured
CC(=O)NCCc1c[nH]c2ccc(O)cc12 [NAS, N-acetylserotonin] | strongest | 16-28 % of control | exerted a neuroprotective effect; also recorded: Protective effect | improve cognitive performance | improved the performance | not in retention | 65.4 ± 8.8 % | 56.0 ± 9.2 % | – | – | – | – | – | – | – | – | – | – | viable neurons, co-incubation with βAP (cerebellar granule cells; 25 μM compound): 101±5 % of control; conversion of NAS into melatonin [1]: rapidly converted into melatonin
CCC(=O)NCCc1c[nH]c2ccc(OCc3ccccc3)cc12 [CA-15, N-[2-(5-Benzyloxyindol-3-yl)ethyl]propanamide] | – | – | exerted a neuroprotective effect; also recorded: Protective effect | improve cognitive performance | strong tendency (although not reaching the level of statistical significance) towards the improvement | improved the performance | – | – | antidepressant-like effects | antihypertensive | 61.4 ± 7.4% | 68.0 ± 8.4 % | 110 to 112 °C | – | – | – | – | – | duration of cognition-enhancing effect in retention test after the learning trials (AF64A-treated rats [3]; 3 mg/kg p.o. for 12 days after AF64A): ≥ 10 days; number of correct responses, learning test (in words) (AF64A-treated rats [3]; [6]): almost completely restored; number of correct responses, retention test (in words) (AF64A-treated rats [3]; [6]): almost completely restored
COc1ccc2[nH]cc(CCNC(C)=O)c2c1 [Melatonin, reference compound] | less effective | 3-10 % of control | Protective effect | improve cognitive performance | completely restored; also recorded: significant but somewhat less pronounced | completely restored; also recorded: significant but somewhat less pronounced | – | – | – | – | 75.4 ± 7.0 % | 72.2 ± 5.8 % | – | 90% | decreased the response time | 79.0 ± 6.0 % | 83.2 ± 3.2 % | did not induced sedation | protective effect against the toxicity of βAP 25-35 (in words) (cerebellar granule cells; 4 days, listed as melatonin): exerted a neuroprotective effect; onset of sedative effect (rats; 3 mg/kg orally daily): 3-4 days of treatment; sedative effect (rats; 3 mg/kg orally daily): unspecified sedative effect
CCCC(=O)NCCc1c[nH]c2ccc(OCc3ccccc3)cc12 [CA-18, N-[2-(5-Benzyloxyindol-3-yl)ethyl] butanamide] | – | – | exerted a neuroprotective effect | improve cognitive performance | completely restored; also recorded: strong tendency (although not reaching the level of statistical significance) towards the improvement | – | 50.0 ± 8.8% | 48.1 ± 9.8% | antidepressant-like effects | antihypertensive | – | – | 112 to 114 °C | 93% | decreased the response time | 84.0 ± 5.4 % | 82.7 ± 5.0 % | did not induced sedation | viability of neurons, compound added to βAP [5]: 98±4 % of control; increase of viability of CGC neurons, compound alone ([5]; mean±S.E.): 18±3 % of control; antidepressant-like activity, comparison CA-18 with CA-15 (mouse): more pronounced; sedative effect (rats; 1 mg/kg orally daily): did not induced sedation
GSNKGAIIGLM [βAP, reference compound] | – | – | – | – | – | – | – | – | – | – | – | – | – | – | – | – | – | – | viability of neurons exposed to βAP alone (cerebellar granule cells; 25 μM βAP, 4 days, mean ±SEM): 58±7 % of control; viability of CGC neurons with βAP alone ([5]; βAP, mean±S.E.): 56±8 % of control
